Target: T1, human chemokine receptor CCR3 (Homo sapiens, UniProt P51677)
T1 construct: expressed in transfected cells; host or cells: K562 cell line (hCCR3-C1 cells), membrane preparation
T1 sequence (P51677 1-355): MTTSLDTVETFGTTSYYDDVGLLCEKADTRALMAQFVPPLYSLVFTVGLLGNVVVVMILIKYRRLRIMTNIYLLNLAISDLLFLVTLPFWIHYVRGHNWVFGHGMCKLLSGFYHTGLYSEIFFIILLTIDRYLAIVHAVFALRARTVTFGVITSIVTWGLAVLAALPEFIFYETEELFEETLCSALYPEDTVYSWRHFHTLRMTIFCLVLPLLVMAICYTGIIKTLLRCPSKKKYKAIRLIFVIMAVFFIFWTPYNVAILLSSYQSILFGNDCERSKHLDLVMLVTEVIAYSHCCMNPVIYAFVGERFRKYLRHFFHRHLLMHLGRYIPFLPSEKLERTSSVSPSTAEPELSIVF
Assay: CCR3 receptor binding assay (SPA, 125I-eotaxin-1 displacement, hCCR3-C1 K562 cell membranes)
Conditions: human Eotaxin-1 at human CCR3-Rezeptor; for inhibition at 1 µM: read-out: CCR3 % inh @ 1 μM; for Ki: dose range 0.1 to 10000 nM
Experimental: The CCR3 receptor binding test is based on a K562 cell line (leukemia myelogenic blast cells) transfected with the human chemokine receptor CCR3 (hCCR3-C1 cells). The cell membranes were prepared by disrupting the hCCR3-C1 cells by […]. The preparation was centrifuged at 400 g 4° C. for 30 min. The supernatant was transferred into fresh tubes followed by a second centrifugation at 48000 g, 4° C. for 1 h. The membranes were re-suspended in the SPA incubation buffer (25 mM HEPES, 25 mM MgCl2 6×H2O, 1 mM CaCl2 2×H2O) without bovine serum albumin and homogenized by passing through a single use needle (Terumo, 23Gx1″). The membranes were stored in aliquots at −80° C.
The CCR3 receptor binding assay was performed in a Scintillation Proximity Assay (SPA) design with the radioligand recombinant human ^125Iodine-eotaxin-1. Cell membranes of hCCR3 C1 cells were again homogenized by passing through a single use needle (Terumo, 23Gx1″) and diluted in SPA incubation buffer in suitable concentrations (0.5-10 μg protein/well) in 96 well microtiter plates (1450-514, Perkin Elmer). The SPA assay was set up in the SPA incubation buffer with a final volume of 200 μl and final concentration of 25 mM HEPES, 25 mM MgCl2 6×H2O, 1 mM CaCl2 2×H2O and 0.1% bovine serum albumin. The SPA assay mixture contained 60 μl of the membrane suspension, 80 μl of Wheat Germ Agglutinin coated PVT beads (organic scintillator, GE Healthcare, RPNQ-0001) 0.2 mg/well), 40 μl of recombinant human ^125Jodine-eotaxin-1 (Biotrend), diluted in SPA buffer to a final concentration of 30.000 dpm per well, and 20 μl of the test compound (dissolved in DMSO dilutions). The SPA assay mixture was incubated for 2 h at room temperature. Bound radioactivity was determined with a scintillation counter (Micro Beta “Trilux”, Wallac). Included were controls for total binding (no displacer added, Bo) and non-specific binding (NSB) by adding unlabelled recombinant human Eotaxin-1 (Biotrend, Cat #300-21) or a reference compound.
Determination of the affinity of a test compound was calculated by subtraction of the non-specific binding (NSB) from the total binding (Bo) or the binding in the presence of the test compound (B) at a given compound concentration. […] The Bo-NSB value was set to 0% inhibition.
% inhibition and Ki values are (human Eotaxin-1 at human CCR3-Rezeptor): […]

SMILES	inhibition at 1 µM (1 μM test compound) [%]	Ki [nM]	CCR3 % inh @ 1 μM (1 μM test compound, 1 µM) [%]
CCCCS(=O)(=O)NC1CCCN(C(=O)[C@@H]2CCC(=O)N2C2CCN(Cc3ccc(Cl)c(C)c3)CC2)C1 (some centres unmarked) [Example 49]	41	1180	–
COc1cc(OC)nc(CNC(=O)[C@@H]2CCC(=O)N2C2CCN(Cc3ccc(Cl)c(C)c3)CC2)n1 [Example 50]	41	1290	–
Cc1nc(C2(NC(=O)[C@@H]3CCC(=O)N3C3CCN(Cc4ccc(Cl)c(C)c4)CC3)CCCC2)no1 [Example 51]	30	1620	–
Cc1cc(CN2CCC(N3C(=O)CC[C@H]3C(=O)NCc3cc(C(C)C)no3)CC2)ccc1Cl [Example 52]	28	1750	–
Cc1cc(CN2CCC(N3C(=O)CC[C@H]3C(=O)NC3CCN(S(C)(=O)=O)C3)CC2)ccc1Cl (some centres unmarked) [Example 53]	33	2010	–
Cc1cc(CN2CCC(N3C(=O)CC[C@H]3C(=O)NCc3ccnn3C)CC2)ccc1Cl [Example 69]	–	–	55
COc1cccc2c1CCN(C(=O)[C@@H]1CCC(=O)N1C1CCN(Cc3ccc(Cl)c(C)c3)CC1)C2 [Example 71]	49	810	–
COc1ccc2c(c1)CN(C(=O)[C@@H]1CCC(=O)N1C1CCN(Cc3ccc(Cl)c(C)c3)CC1)CC2 [Example 72]	48	875	–
Cc1cc(CN2CCC(N3C(=O)CC[C@H]3C(=O)N3CCc4ccc(F)cc4C3)CC2)ccc1Cl [Example 73]	48	922	–
Cc1cc(CN2CCC(N3C(=O)CC[C@@H]3C(=O)N3CCc4ccc([N+](=O)[O-])cc4C3)CC2)ccc1Cl [Example 74]	46	927	–
Cc1cc(CN2C3CCC2CC(N2C(=O)CC[C@@H]2C(=O)Nc2cccc(N(CC(=O)N4CCC4)S(C)(=O)=O)c2)C3)ccc1Cl (some centres unmarked) [Example 75]	97	30	–
Cc1cc(CN2C3CCC2CC(N2C(=O)CC[C@@H]2C(=O)Nc2cccc(N(CC(=O)N(C)C)S(C)(=O)=O)c2)C3)ccc1Cl (some centres unmarked) [Example 76]	97	37	–
Cc1cc(CN2C3CCC2CC(N2C(=O)CC[C@@H]2C(=O)Nc2cccc(-c4nnnn4C)c2)C3)ccc1Cl (some centres unmarked) [Example 77]	96	38	–
Cc1cc(CN2C3CCC2CC(N2C(=O)CC[C@@H]2C(=O)Nc2cccc(N(CC(=O)N(C)C)S(=O)(=O)C4CC4)c2)C3)ccc1Cl (some centres unmarked) [Example 78]	94	50	–
CCS(=O)(=O)N(CC(=O)N(C)C)c1cccc(NC(=O)[C@H]2CCC(=O)N2C2CC3CCC(C2)N3Cc2ccc(Cl)c(C)c2)c1 (some centres unmarked) [Example 79]	91	52	–
CCNS(=O)(=O)c1cccc(NC(=O)[C@H]2CCC(=O)N2C2CC3CCC(C2)N3Cc2ccc(Cl)c(C)c2)c1 (some centres unmarked) [Example 80]	95	55	–
Cc1cc(CN2C3CCC2CC(N2C(=O)CC[C@@H]2C(=O)Nc2cccc(C(N)=O)c2)C3)ccc1Cl (some centres unmarked) [Example 81]	89	111	–
CNC(=O)c1cccc(NC(=O)[C@H]2CCC(=O)N2C2CC3CCC(C2)N3Cc2ccc(Cl)c(C)c2)c1 (some centres unmarked) [Example 84]	77	232	–
Cc1cc(CN2C3CCC2CC(N2C(=O)CC[C@@H]2C(=O)Nc2cc(C4CC4)nn2C)C3)ccc1Cl (some centres unmarked) [Example 85]	68	350	–
Cc1nccc(-c2cccc(NC(=O)[C@H]3CCC(=O)N3C3CC4CCC(C3)N4Cc3ccc(Cl)c(C)c3)c2)n1 (some centres unmarked) [Example 86]	65	419	–

Further compounds by falling Ki, results first:

inhibition at 1 µM (1 μM test compound) [%]	Ki [nM]	CCR3 % inh @ 1 μM (1 μM test compound, 1 µM) [%]	SMILES
46	791	–	Cc1cc(CN2CCC(N3C(=O)CC[C@H]3C(=O)NCc3ccc(Cl)nc3C)CC2)ccc1Cl [Example 70]
48	715	–	Cc1cc(CN2CCC(N3C(=O)CC[C@@H]3C(=O)NCc3cccc4[nH]ccc34)CC2)ccc1Cl [Example 68]
52	700	–	COCC(NC(=O)C1CCC(=O)N1C1CCN(Cc2ccc(Cl)c(C)c2)CC1)c1nc2ccc(Cl)cc2[nH]1 (centres unmarked) [Example 67]
51	670	–	COC(=O)c1ccc2c(c1)CCN(C(=O)[C@H]1CCC(=O)N1C1CCN(Cc3ccc(Cl)c(C)c3)CC1)C2 [Example 96]
50	669	–	COC(=O)CC(NC(=O)[C@@H]1CCC(=O)N1C1CCN(Cc2ccc(Cl)c(C)c2)CC1)c1ccccn1 (some centres unmarked) [Example 97]
81	658	–	Cc1cc(CN2CCC(N3C(=O)CC[C@H]3C(=O)Nc3cccc(Cc4ccncc4)c3)CC2)ccc1Cl [Example 66]
57	602	–	Cc1cc(CN2CCC(N3C(=O)CC[C@@H]3C(=O)N3CCc4c(cccc4C(F)(F)F)C3)CC2)ccc1Cl [Example 65]
60	545	–	Cc1cc(CN2CCC(N3C(=O)CC[C@@H]3C(=O)Nc3ccc4c(c3)CC(N(C)C)C4)CC2)ccc1Cl (some centres unmarked) [Example 64]
60	518	–	Cc1cc(CN2CCC(N3C(=O)CC[C@@H]3C(=O)N3Cc4ccccc4C3)CC2)ccc1Cl [Example 63]
63	507	–	Cc1cc(CN2CCC(N3C(=O)CC[C@H]3C(=O)N3CCc4cc(F)ccc4C3)CC2)ccc1Cl [Example 62]
57	492	–	Cc1cc(CN2CCC(N3C(=O)CC[C@H]3C(=O)N3Cc4ccccc4C(C)(C)C3)CC2)ccc1Cl [Example 61]
65	430	–	Cc1cc(CN2CCC(N3C(=O)CC[C@H]3C(=O)NC3CCN(c4ccccn4)CC3)CC2)ccc1Cl [Example 60]
66	402	–	Cc1cc(CN2CCC(N3C(=O)CC[C@@H]3C(=O)N3CCc4c(F)cccc4C3)CC2)ccc1Cl [Example 59]
74	302	–	Cc1cc(CN2CCC(N3C(=O)CC[C@H]3C(=O)N3CCc4c(F)ccc(F)c4C3)CC2)ccc1Cl [Example 57]
76	254	–	Cc1cc(CN2CCC(N3C(=O)CC[C@H]3C(=O)N3CCc4cccc(C(F)(F)F)c4C3)CC2)ccc1Cl [Example 56]
78	235	–	COc1cccc2c1CN(C(=O)[C@@H]1CCC(=O)N1C1CCN(Cc3ccc(Cl)c(C)c3)CC1)CC2 [Example 55]
76	221	–	Cc1cc(CN2CCC(N3C(=O)CC[C@H]3C(=O)N3CCc4cccc(F)c4C3)CC2)ccc1Cl [Example 58]
75	202	–	CCOC(=O)Cc1csc(NC(=O)[C@H]2CCC(=O)N2C2CCN(Cc3ccc(Cl)c(C)c3)CC2)n1 [Example 98]
90	89	–	Cc1cc(CN2CCC(N3C(=O)CC[C@@H]3C(=O)N3CCc4cccc(Br)c4C3)CC2)ccc1Cl [Example 54]
91	67	–	COC(=O)c1csc(NC(=O)[C@H]2CCC(=O)N2C2CCN(Cc3ccc(Cl)c(C)c3)CC2)n1 [Example 99]
94	52	–	COC(=O)c1cc(NC(=O)[C@H]2CCC(=O)N2C2CCN(Cc3ccc(Cl)c(C)c3)CC2)cn1C [Example 94]
94	40	–	CCOC(=O)c1cc(NC(=O)[C@H]2CCC(=O)N2C2CCN(Cc3ccc(Cl)c(C)c3)CC2)nn1C [Example 95]
95	29	–	CCOC(=O)c1cc(NC(=O)[C@H]2CCC(=O)N2C2CCN(Cc3ccc(Cl)c(C)c3)CC2)no1 [Example 93]
98	18	–	CCn1cc(NC(=O)[C@H]2CCC(=O)N2C2CCN(Cc3ccc(Cl)c(C)c3)CC2)cc1C(=O)OC [Example 91]
100	7	–	CCOC(=O)c1sc(NC(=O)[C@H]2CCC(=O)N2C2CCN(Cc3ccc(Cl)c(C)c3)CC2)nc1C [Example 100]

Reference: patent US8653075B2, “Therapeutic methods employing substituted piperidines which are CCR3 antagonists” (Boehringer Ingelheim International GmbH, priority 2009, dated 2014)
